# Results published in article PMC6471705, “Evaluation of the Enzyme Inhibitory and Antioxidant Activities of Entada spiralis Stem Bark and Isolation of the Active Constituents” (Molecules, 2019).
# “And” between values parts separate entries of the source, which are not always exact repeats. Equal values may be shown once. Read-outs that look alike come from different tables or passages of the source.
# Experiments:
# [1] = DPPH radical scavenging assay; conditions: for IC50: Table 3, molar units; for IC50 DPPH Assay: mean ± SEM of triplicate
# Protocol: Modified methods from Sulaiman et al. and Ahmed et al. were used. Briefly, 150 µL of freshly prepared DPPH^• solution (0.4 M concentration) was carefully introduced into 96 round microplate wells each. 100 µL of sample/ standard (7.81–500 µg/mL) were added. Blanks contained only methanol and DPPH^•. Ascorbic acid (dissolved in distilled water) and quercetin (dissolved in MeOH) were used as standard. The plate was left in the dark for 25 min to activate. […] Tests were conducted in triplicate and the percentage inhibition of each sample/standard was calculated using the following equation:(1) (% DPPH inhibition)= [Ac−As/Ac] ×100 where, Ac = absorbance of DPPH radical in MeOH, As = absorbance of DPPH radical in sample or standard. IC50 values obtained from graphical plot from percentage inhibition against concentration were used to define the radial scavenging activity of each sample.
# [2] = ABTS radical scavenging assay; conditions: for IC50: Table 3, molar units; for IC50 ABTS Assay: mean ± SEM of triplicate
# Protocol: A method reported by Zheleva-Dimitrova et al. was adopted with slight modifications. Stock solutions of ABTS (7 mM) and potassium persulphate (2.45 mM) were prepared using distilled water. The working solution was prepared by adding 1 mL of ABTS solution to same amount of potassium persulphate solution. The reaction mixture was left overnight for 16 h to generate the intensely blue coloured ABTS^•+. 1 mL of ABTS^•+ was then added to 50 mL of MeOH and distributed (100 µL each) into a 96 microplate well containing 100 µL of serially diluted sample/ standard (7.81–125 µg/mL). Absorbance was measured at 734 nm against blank (containing sample and MeOH only). Test was conducted in triplicate. Samples were compared with trolox and ascorbic acid and percentage inhibition was calculated as follows:(2) (% ABTS inhibition)= [Ac−As/Ac] ×100 where, Ac = absorbance of ABTS^• in MeOH, As = absorbance ABTS^•+ in sample/standard.
# The radical scavenging activity was determined from the IC50 values obtained from the percentage inhibition curve against different concentrations of the sample/standard.
# [3] = molecular target: α-glucosidase (Saccharomyces cerevisiae, UniProt P53341); test: In vitro α-glucosidase inhibitory assay (pNPG substrate); type: biochemical
# Protocol: This assay used a method adapted from Johnson et al. with slight modifications employing α-glucosidase (enzyme) obtained from Saccharomyces cerevisiae (1 U/mL) dissolved in 50 mM phosphate buffer (pH 6.9). 100 µL of enzyme (in 0.1M phosphate buffer) was added into 96 microplate well containing 50 µL of sample/ standard 7.8–1000 µg/mL and incubated at 37 °C for 10 min. Next was the addition of 50 µL of the substrate, p-nitrophenyl glucopyranoside (5 mM in 0.1 phosphate buffer at pH 6.9) and re-incubated for 5 min at 37 °C. The reaction was terminated by the addition of 100 µL of 0.1 M Na2CO3 and absorbance was measured at 405 nm.
# Experiments were conducted in triplicate.
# [4] = molecular target: T1, α-amylase (Sus scrofa, UniProt P00690); test: In vitro α-amylase inhibitory assay (starch-iodine method); type: biochemical; conditions: mean ± SEM of triplicate
# T1 sequence (P00690 16-511): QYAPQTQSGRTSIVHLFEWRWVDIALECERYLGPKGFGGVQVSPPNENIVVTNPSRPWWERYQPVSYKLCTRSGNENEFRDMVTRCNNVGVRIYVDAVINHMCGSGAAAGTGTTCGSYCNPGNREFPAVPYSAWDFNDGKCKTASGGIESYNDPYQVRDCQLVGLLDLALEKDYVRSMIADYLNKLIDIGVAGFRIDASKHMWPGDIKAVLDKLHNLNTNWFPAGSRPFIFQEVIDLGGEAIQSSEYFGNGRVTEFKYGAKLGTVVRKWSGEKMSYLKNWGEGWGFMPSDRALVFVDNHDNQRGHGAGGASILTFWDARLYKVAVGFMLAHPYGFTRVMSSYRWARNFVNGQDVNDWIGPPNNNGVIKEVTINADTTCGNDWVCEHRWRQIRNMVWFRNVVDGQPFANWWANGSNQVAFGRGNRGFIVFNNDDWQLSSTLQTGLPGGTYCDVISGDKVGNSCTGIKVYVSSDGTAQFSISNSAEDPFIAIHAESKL
# Protocol: The procedure proposed by Johnson et al. was adopted and modified for a microplate-based method carried out by Xiao et al.. Briefly, 25 µL of α-amylase solution (1 U/mL in 0.2 M phosphate buffer at pH 7) was introduced into 96 well flat bottom microplates followed by addition of 25 µL of serially diluted sample/standard (7.8–1000 µg/mL) and incubated for 5 min at 37 °C followed by 25 µL of 1% starch in buffer (boiled for 15 min) and re-incubated for 45 min at 50 °C. Next was the addition of 100 µL of 1% iodine solution and 50 µL of distilled water. The microplate was tightly covered during incubation to prevent evaporative loss. […] All determinations including sample, control, and blank were conducted in triplicate under the same reaction conditions. […] Inhibitory activity was determined using the following equation:(3) (% enzyme inhibition)= 1−[Abs/Contr] ×100 where, Abs is the absorbance of the sample or standard. Contr is the absorbance of the control without enzyme.
# [5] = Dot-blot staining assay, β-carotene; conditions: 1 mg/mL, compared to ascorbic acid positive control
# Protocol: (§1) Rapid detection of the free radical scavenging activity of isolated compounds from active fractions of E. spiralis methanol extract was carried out using a method adapted from Sarian et al.. Three detection agents viz., DPPH^•, ABTS^•+ and β-carotene were used. Briefly, few drops of each compound were spotted on a TLC plate (1.5 × 8 cm) using capillary tube and dried for few minutes at room temperature. The plate was then carefully dipped in 0.5% DPPH^• in methanol for few seconds. The plate was allowed to dry and the colour change was observed. Yellow spots on a purple background indicate radical scavenging activity and intensity of the yellow colour is proportional to the antioxidant activity. A TLC-β-carotene assay was also conducted using 0.05% of β-carotene in chloroform. A few drops of each sample (1 mg/mL) was spotted on TLC plate an allowed to dry after which it was dipped into β-carotene solution for 20 s. The plate was dried completely under direct sunlight for 3 h. Yellow or orange spot on a white background indicates activity. The intensity of the colour is dependent on the extent of antioxidant activity of the compound. TLC ABTS^•+ test was performed by mixing 2.45 mM of potassium persulphate with 7 mM of ABTS and kept in the dark for 16 hours to generate ABTS^•+. Already spotted TLC plates were then dipped into it for 10 s and allowed to dry at room temperature. White or orange spots on a bluish green background indicates activity.
# [6] = Dot-blot staining assay, DPPH reagent; conditions: 1 mg/mL, compared to ascorbic acid positive control
# Protocol: as §1
# [7] = Dot-blot staining assay, ABTS reagent; conditions: 1 mg/mL, compared to ascorbic acid positive control
# Protocol: as §1
# [8] = molecular target: α-glucosidase; design: method as in doi:10.1016/j.foodres.2014.01.029; conditions: isolated from Rhodiola crenulata root; cited from earlier work
# [9] = molecular target: human pancreatic amylase; conditions: cited from earlier work
# [10] = Table 3, molar units, read-out: IC50 α-Glucosidase (converted)
# [11] = mean ± SEM of triplicate, read-out: IC50 α-Glucosidase (converted)
# Chain of α-glucosidase (Saccharomyces cerevisiae, UniProt P53341) (P53341 whole entry): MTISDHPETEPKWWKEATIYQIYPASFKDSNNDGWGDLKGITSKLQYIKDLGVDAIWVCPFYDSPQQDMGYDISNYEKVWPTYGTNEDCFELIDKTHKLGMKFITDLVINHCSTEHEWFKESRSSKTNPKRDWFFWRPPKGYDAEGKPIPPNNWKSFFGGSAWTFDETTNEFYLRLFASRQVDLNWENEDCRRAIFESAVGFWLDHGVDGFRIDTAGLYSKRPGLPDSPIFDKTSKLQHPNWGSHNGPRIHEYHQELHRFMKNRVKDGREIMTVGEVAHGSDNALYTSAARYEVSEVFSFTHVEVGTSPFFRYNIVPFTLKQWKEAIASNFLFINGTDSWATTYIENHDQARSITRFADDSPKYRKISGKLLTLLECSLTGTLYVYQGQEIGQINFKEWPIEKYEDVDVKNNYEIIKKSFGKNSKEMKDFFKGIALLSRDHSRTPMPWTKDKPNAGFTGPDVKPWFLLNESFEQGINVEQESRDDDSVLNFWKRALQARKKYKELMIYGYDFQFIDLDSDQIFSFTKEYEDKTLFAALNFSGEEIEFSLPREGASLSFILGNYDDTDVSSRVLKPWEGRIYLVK
Molecule,IC50 [1],IC50 DPPH Assay [1],IC50 DPPH Assay ([1]; listed as ascorbic acid),IC50 [2],IC50 ABTS Assay [2],"IC50 [3, 10]","IC50 [3, 11]",IC50 α-Amylase [4],"Dot-blot spot intensity, β-carotene [5]","Dot-blot spot intensity, DPPH [6]","Dot-blot spot intensity, ABTS [7]","IC50 ([3]; IC50 α-Glucosidase, Table 3, molar units)","IC50 ([3]; IC50 α-Glucosidase, mean ± SEM of triplicate)",IC50 ([3]; read-out: IC50 α-Glucosidase (converted)),IC50 [8],Ki [9]
"O=C1O[C@H]([C@@H](O)CO)C(O)=C1O [Ac, ascorbic acid, reference compound]",140 µM,24.67 ± 0.45 ^A µg/mL,5.38 ± 1.26 µg/mL,95 µM,16.74± 1.76 ^A µg/mL,,,,,,,,,,,
"CCCCCCOC(=O)/C=C/c1ccc(O)c(OC)c1 [FEQ-2, (E)-hexyl 3-(4-hydroxy-3-methoxyphenyl) acrylate]",50 µM,13.79 ± 2.13 µg/mL,,10 µM,4.69 ± 1.25 µg/mL,530 µM,535 µM,did not show any observable α-amylase inhibition,strong intensity,strong intensity,strong intensity,,,,,
"O=c1c(O)c(-c2ccc(O)cc2)oc2cc(O)cc(O)c12 [FEQ-3, kaempferol]",39 µM,11.29 ± 0.26 µg/mL,,7 µM,2.10 ± 0.51 µg/mL,,,,strong intensity,strong intensity,strong intensity,,,,,
"COc1cc(O)c2c(=O)c(OC)c(-c3ccc(O)c(OC)c3)oc2c1 [FEQ-4, pachypodol]",190 µM,66.17 ± 8.03 µg/mL,,100 µM,,220 µM,219 µM,,low intensity,low intensity,strong intensity,,,,,
"O=C(O)c1cc(O)c(O)c(O)c1 [FEQ-5, gallic acid]",36 µM,6.15 ± 0.38 µg/mL,,7.5 µM,1.28 ± 0.89 µg/mL,,,,strong intensity,strong intensity,strong intensity,38 µM,38.1 µM,,,
"Oc1cc(O)c2c(c1)O[C@H](c1ccc(O)c(O)c1)[C@@H](O)C2 [FEQ-7, (+)-catechin]",43 µM,12.48 ± 1.55 µg/mL,,6.4 µM,1.86 ± 0.15 µg/mL,,,did not show any observable α-amylase inhibition,strong intensity,strong intensity,strong intensity,,,351 µM and 350 µM,,
"Oc1cc(O)c2c(c1)O[C@H](c1ccc(O)c(O)c1)[C@H](O)C2 [FEQ-8, (−)-epicatechin]",40 µM,,,3.9 µM,1.12 ± 0.09 µg/mL,340 µM,341 µM,did not show any observable α-amylase inhibition,strong intensity,strong intensity,strong intensity,,,,29.9 ± 2.2 µM,
"O=c1c(O)c(-c2ccc(O)c(O)c2)oc2cc(O)cc(O)c12 [Qc, quercetin, reference compound]",99 µM,29.82 ± 3.73 ^A µg/mL,,,,,,,,,,,,,,
"Cc1c(C)c2c(c(C)c1O)CCC(C)(C(=O)O)O2 (stereo not drawn) [Tx, 6-hydroxy-2,5,7,8-tetramethylchroman-2-carboxylic acid, reference compound]",,,,61 µM,15.23 ± 2.15 ^A µg/mL,,,,,,,,,,,
montbretin A,,,,,,,,,,,,,,,,0.008 µM
